Test results taken from patent US20240025906A1 (NEURON23, INC., priority 2022, published 2024).

Legend:
[1] = molecular target: T1, TYK2 JH2 (Homo sapiens, UniProt P29597); experiment: TYK2 JH2 binding assay (KINOMEscan KdELECT competitive binding); details: TYK2 JH2 domain, DiscoverX KINOMEscan KdELECT (Assay A); read-out: Biochemical TYK2_DiscoverX_JH2_BND_Kd
T1 construct: purchased DiscoverX (KINOMEscan KdELECT service); host or cells: E. coli BL21-derived (T7 phage display) or HEK-293
Outline: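 Kd values come from qPCR measurement of kinase retained on an immobilized-ligand resin after 1 h room-temperature competition with compound in an 11-point, 3-fold series.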

[2] = test system: JAK1/TYK2 pSTAT5 (Tyr694/699) in THP-1 cell line; experiment: IFNa-stimulated JAK1/TYK2 pSTAT5 (Tyr694/699) inhibition cellular assay, AlphaLISA; type: cell-based; details: Homo sapiens; THP-1 cells, IFNa-stimulated, AlphaLISA (Assay B); read-out: Cellular_THP1_IFNa-pSTATS_TYK2
Outline: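 The readout is AlphaLISA signal at 615 nm for phospho-STAT5 in THP-1 lysates after IFNa stimulation (added at 100 ng/mL, 30 min, 37 °C). Cells had compound for 1 h beforehand across eight 6-fold concentrations up to 10000 nM final. IC50s are 4PL fits with bottom and Hill slope constrained.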

T1 sequence (P29597 589-875 limits assumed): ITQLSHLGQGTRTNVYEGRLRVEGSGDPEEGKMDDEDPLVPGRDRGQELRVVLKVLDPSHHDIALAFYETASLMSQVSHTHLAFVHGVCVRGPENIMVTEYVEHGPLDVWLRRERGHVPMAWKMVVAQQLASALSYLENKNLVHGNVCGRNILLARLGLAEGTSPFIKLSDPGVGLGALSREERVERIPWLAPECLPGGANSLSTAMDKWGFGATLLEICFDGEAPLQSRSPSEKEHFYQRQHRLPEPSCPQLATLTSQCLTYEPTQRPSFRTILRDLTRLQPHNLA

SMILES | Kd [1] [nM] | IC50 [2] [nM]
CNc1ncc(-c2nc3c(Cl)cccc3o2)c2cc(NC(=O)C3CC3)ncc12 [Example 204, N-(5-(4-chlorobenzo[d]oxazol-2-yl)-8-(methylamino)-2,7-naphthyridin-3-yl)cyclopropanecarboxamide] | ≤ 100 | ≤ 500
CNc1ncc(-c2nc3cccc(C)c3o2)c2cc(NC(=O)C3CC3)ncc12 [Example 205, N-(8-(methylamino)-5-(7-methylbenzo[d]oxazol-2-yl)-2,7-naphthyridin-3-yl)cyclopropanecarboxamide] | ≤ 100 | ≤ 500
CNc1ncc(-c2nc3ccc(C)cc3o2)c2cc(NC(=O)C3CC3)ncc12 [Example 206, N-(8-(methylamino)-5-(6-methylbenzo[d]oxazol-2-yl)-2,7-naphthyridin-3-yl)cyclopropanecarboxamide] | ≤ 100 | ≤ 500
CNc1ncc(-c2nc3cc(C)ccc3o2)c2cc(NC(=O)C3CC3)ncc12 [Example 207, N-(8-(methylamino)-5-(5-methylbenzo[d]oxazol-2-yl)-2,7-naphthyridin-3-yl)cyclopropanecarboxamide] | ≤ 100 | ≤ 500
CNc1ncc(-c2nc3cccc(OC)c3o2)c2cc(NC(=O)C3CC3)ncc12 [Example 208, N-(5-(7-methoxybenzo[d]oxazol-2-yl)-8-(methylamino)-2,7-naphthyridin-3-yl)cyclopropanecarboxamide] | ≤ 100 | ≤ 500
CNc1ncc(-c2nc3cc(Br)ccc3o2)c2cc(NC(=O)C3CC3)ncc12 [Example 209, N-(5-(5-bromobenzo[d]oxazol-2-yl)-8-(methylamino)-2,7-naphthyridin-3-yl)cyclopropanecarboxamide] | ≤ 100 | ≤ 500
CNc1ncc(-c2nc3cc(C#N)ccc3o2)c2cc(NC(=O)C3CC3)ncc12 [Example 210, N-(5-(5-cyanobenzo[d]oxazol-2-yl)-8-(methylamino)-2,7-naphthyridin-3-yl)cyclopropanecarboxamide] | ≤ 100 | ≤ 500
CNc1ncc(-c2nc3cccc(Cl)c3o2)c2cc(NC(=O)C3CC3)ncc12 [Example 211, N-(5-(7-chlorobenzo[d]oxazol-2-yl)-8-(methylamino)-2,7-naphthyridin-3-yl)cyclopropanecarboxamide] | ≤ 100 | ≤ 500
CNc1ncc(-c2nc3cc(Cl)ccc3o2)c2cc(NC(=O)C3CC3)ncc12 [Example 212, N-(5-(5-chlorobenzo[d]oxazol-2-yl)-8-(methylamino)-2,7-naphthyridin-3-yl)cyclopropanecarboxamide] | ≤ 100 | ≤ 500
CNc1ncc(-c2nc3ccc(C#N)cc3o2)c2cc(NC(=O)C3CC3)ncc12 [Example 213, N-(5-(6-cyanobenzo[d]oxazol-2-yl)-8-(methylamino)-2,7-naphthyridin-3-yl)cyclopropanecarboxamide] | ≤ 100 | ≤ 500
CNc1ncc(-c2nc3cc(C(=O)O)ccc3o2)c2cc(NC(=O)C3CC3)ncc12 [Example 214, 2-(6-(cyclopropanecarboxamido)-1-(methylamino)-2,7-naphthyridin-4-yl)benzo[d]oxazole-5-carboxylic acid] | ≤ 100 | > 500
CNc1ncc(-c2nc3c(O)cccc3o2)c2cc(NC(=O)C3CC3)ncc12 [Example 215, N-(5-(4-hydroxybenzo[d]oxazol-2-yl)-8-(methylamino)-2,7-naphthyridin-3-yl)cyclopropanecarboxamide] | ≤ 100 | ≤ 500
CNc1ncc(-c2nc3cc(C(C)=O)ccc3o2)c2cc(NC(=O)C3CC3)ncc12 [Example 216, N-(5-(5-acetylbenzo[d]oxazol-2-yl)-8-(methylamino)-2,7-naphthyridin-3-yl)cyclopropanecarboxamide] | ≤ 100 | ≤ 500
CNc1ncc(-c2nc3cc(C(F)(F)F)ccc3o2)c2cc(NC(=O)C3CC3)ncc12 [Example 217, N-(8-(methylamino)-5-(5-(trifluoromethyl)benzo[d]oxazol-2-yl)-2,7-naphthyridin-3-yl)cyclopropanecarboxamide] | ≤ 100 | ≤ 500
CNc1ncc(-c2nc3cc(OC(F)(F)F)ccc3o2)c2cc(NC(=O)C3CC3)ncc12 [Example 218, N-(8-(methylamino)-5-(5-(trifluoromethoxy)benzo[d]oxazol-2-yl)-2,7-naphthyridin-3-yl)cyclopropanecarboxamide] | ≤ 100 | ≤ 500
CNc1ncc(-c2nc3ccc(Cl)cc3o2)c2cc(NC(=O)C3CC3)ncc12 [Example 219, N-(5-(6-chlorobenzo[d]oxazol-2-yl)-8-(methylamino)-2,7-naphthyridin-3-yl)cyclopropanecarboxamide] | ≤ 100 | ≤ 500
CNc1ncc(-c2nc3c(N4CCC4COC)cccc3o2)c2cc(NC(=O)C3CC3)ncc12 (stereo not drawn) [Example 220, N-(5-(4-(2-(methoxymethyl)azetidin-1-yl)benzo[d]oxazol-2-yl)-8-(methylamino)-2,7-naphthyridin-3-yl)cyclopropanecarboxamide] | ≤ 100 | > 500
CNc1ncc(-c2nc3cc(O[C@H]4C[C@@H](C#N)C4)ccc3o2)c2cc(NC(=O)C3CC3)ncc12 [Example 232, N-(5-(5-((1s,3s)-3-cyanocyclobutoxy)benzo[d]oxazol-2-yl)-8-(methylamino)-2,7-naphthyridin-3-yl)cyclopropanecarboxamide] | ≤ 100 | ≤ 500
CNc1ncc(-c2nc3cc(O[C@H]4C[C@H](C#N)C4)ccc3o2)c2cc(NC(=O)C3CC3)ncc12 [Example 233, N-(5-(5-((1r,3r)-3-cyanocyclobutoxy)benzo[d]oxazol-2-yl)-8-(methylamino)-2,7-naphthyridin-3-yl)cyclopropanecarboxamide] | ≤ 100 | ≤ 500

Next, values leading:

Kd [1] [nM] | IC50 [2] [nM] | SMILES
≤ 100 | ≤ 500 | CNc1ncc(-c2nc3c(N4CC(OC)C4)cccc3o2)c2cc(NC(=O)C3CC3)ncc12 [Example 221, N-(5-(4-(3-methoxyazetidin-1-yl)benzo[d]oxazol-2-yl)-8-(methylamino)-2,7-naphthyridin-3-yl)cyclopropanecarboxamide]
≤ 100 | ≤ 500 | CNc1ncc(-c2nc3c(OC4CC4)cccc3o2)c2cc(NC(=O)C3CC3)ncc12 [Example 222, N-(5-(4-cyclopropoxybenzo[d]oxazol-2-yl)-8-(methylamino)-2,7-naphthyridin-3-yl)cyclopropanecarboxamide]
≤ 100 | ≤ 500 | CNc1ncc(-c2nc3cc(OC4CC4)ccc3o2)c2cc(NC(=O)C3CC3)ncc12 [Example 223, N-(5-(5-cyclopropoxybenzo[d]oxazol-2-yl)-8-(methylamino)-2,7-naphthyridin-3-yl)cyclopropanecarboxamide]
≤ 100 | ≤ 500 | CNc1ncc(-c2nc3c(OC)c(OC)ccc3o2)c2cc(NC(=O)C3CC3)ncc12 [Example 224, N-(5-(4,5-dimethoxybenzo[d]oxazol-2-yl)-8-(methylamino)-2,7-naphthyridin-3-yl)cyclopropanecarboxamide]
≤ 100 | ≤ 500 | CNc1ncc(-c2nc3cc(OC(F)F)ccc3o2)c2cc(NC(=O)C3CC3)ncc12 [Example 225, N-(5-(5-(difluoromethoxy)benzo[d]oxazol-2-yl)-8-(methylamino)-2,7-naphthyridin-3-yl)cyclopropanecarboxamide]
≤ 100 | ≤ 500 | CNc1ncc(-c2nc3cc(OCC4CC4)ccc3o2)c2cc(NC(=O)C3CC3)ncc12 [Example 226, N-(5-(5-(cyclopropylmethoxy)benzo[d]oxazol-2-yl)-8-(methylamino)-2,7-naphthyridin-3-yl)cyclopropanecarboxamide]
≤ 100 | ≤ 500 | CNc1ncc(-c2nc3cc(OCCC#N)ccc3o2)c2cc(NC(=O)C3CC3)ncc12 [Example 227, N-(5-(5-(2-cyanoethoxy)benzo[d]oxazol-2-yl)-8-(methylamino)-2,7-naphthyridin-3-yl)cyclopropanecarboxamide]
≤ 100 | ≤ 500 | CNc1ncc(-c2nc3cc(OC4COC4)ccc3o2)c2cc(NC(=O)C3CC3)ncc12 [Example 228, N-(8-(methylamino)-5-(5-(oxetan-3-yloxy)benzo[d]oxazol-2-yl)-2,7-naphthyridin-3-yl)cyclopropanecarboxamide]
≤ 100 | ≤ 500 | CNc1ncc(-c2nc3cc(OC4CCOC4)ccc3o2)c2cc(NC(=O)C3CC3)ncc12 (stereo not drawn) [Example 229, N-(8-(methylamino)-5-(5-((tetrahydrofuran-3-yl)oxy)benzo[d]oxazol-2-yl)-2,7-naphthyridin-3-yl)cyclopropanecarboxamide]
≤ 100 | ≤ 500 | CNc1ncc(-c2nc3cc(OC4CN(C(C)=O)C4)ccc3o2)c2cc(NC(=O)C3CC3)ncc12 [Example 230, N-(5-(5-((1-acetylazetidin-3-yl)oxy)benzo[d]oxazol-2-yl)-8-(methylamino)-2,7-naphthyridin-3-yl)cyclopropanecarboxamide]
≤ 100 | ≤ 500 | CNc1ncc(-c2nc3cc(OCCOC)ccc3o2)c2cc(NC(=O)C3CC3)ncc12 [Example 231, N-(5-(5-(2-methoxyethoxy)benzo[d]oxazol-2-yl)-8-(methylamino)-2,7-naphthyridin-3-yl)cyclopropanecarboxamide]
